# Results taken from patent US20080194524A1, “Compounds For the Inhibition of Undesired Cell Proliferation and Use Thereof” (JERINI AG, priority 2003, published 2008).
# Where a SMILES comes first, the peptide text is derived from it. [ ]: non-standard residue; d: D form. The star is where a group is joined. X1 = O=C(O)c1cc(NC(=S)*)ccc1-c1c2ccc(=O)cc-2oc2cc(O)ccc12; Acetyl(2-(piperazin-1-yl)) = O=C(CN1CCNCC1)*; 2Nal = N[C@@H](Cc1ccc2ccccc2c1)C(=O)O; Bta = N[C@@H](Cc1csc2ccccc12)C(=O)O; Benzyl(3,4-Cl2) = Clc1ccc(C*)cc1Cl; Benzyl(4-Cl) = Clc1ccc(C*)cc1; Pip = O=C(O)[C@@H]1CCCCN1; CH2PO3H2 = O=P(O)(O)C*; Inp = O=C(O)C1CCNCC1; Ahx = NCCCCCC(=O)O; Mpa = O=C(O)CCS
# Biological target: hPin1 (Protein interacting with NIMA (-kinase)) (Homo sapiens, UniProt Q13526)
# Sequence (Q13526 whole entry): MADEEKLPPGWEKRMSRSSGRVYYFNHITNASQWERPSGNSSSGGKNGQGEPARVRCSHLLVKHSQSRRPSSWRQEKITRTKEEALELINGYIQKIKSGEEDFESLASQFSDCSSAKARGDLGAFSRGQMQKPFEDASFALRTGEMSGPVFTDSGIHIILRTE
# Experiment: protease-coupled PPIase assay, hPin1
# Format: biochemical
# Settings: not given
row,SMILES,IC50
1,"CC(=O)N[C@@H](Cc1csc2ccccc12)C(=O)N[C@H](CSCP(=O)(O)O)C(=O)N1CCCC[C@H]1C(=O)N[C@@H](Cc1ccc2ccccc2c1)C(N)=O (stereo in doubt) [Compound 3, {2-(2-Acetylamino-3-benzo[b]thiophen-3-yl-propionylamino)-3-[2-(1-carbamoyl-2-naphthalen-2-yl-ethylcarbamoyl)-piperidin-1-yl]-3-oxo-propylsulfanylmethyl}-phosphonic acid]",< 1000 nM
2,"CC(=O)N1C(=O)SCC1C(=O)N[C@@H](CSCP(=O)(O)O)C(=O)N1CCCC[C@H]1C(=O)N[C@@H](Cc1ccc2ccccc2c1)C(N)=O (stereo in doubt) [Compound 42, {2-[(3-Acetyl-2-oxo-thiazolidine-4-carbonyl)-amino]-3-[2-(1-carbamoyl-2-naphthalen-2-yl-ethylcarbamoyl)-piperidin-1-yl]-3-oxo-propylsulfanylmethyl}-phosphonic acid]",< 1000 nM
3,"CC(=O)N[C@@H](Cc1csc2ccccc12)C(=O)N[C@@H](COCP(=O)(O)O)C(=O)N1CCCC[C@H]1C(=O)N[C@@H](Cc1ccc2ccccc2c1)C(N)=O [Compound 1, {2-(2-Acetylamino-3-benzo[b]thiophen-3-yl-propionylamino)-3-[2-(1-carbamoyl-2-naphthalen-2-yl-ethylcarbamoyl)-piperidin-1-yl]-3-oxo-propoxymethyl}-phosphonicacid] (Ac-[Bta]S(CH2PO3H2)[Pip][2Nal]-NH2)",1000 to 10000 nM
4,"CC(=O)N[C@@H](Cc1csc2ccccc12)C(=O)N[C@@H](CSCP(=O)(O)O)C(=O)N1CCCC[C@H]1C(=O)N[C@@H](Cc1ccc2ccccc2c1)C(N)=O [Compound 2, {2-(2-Acetylamino-3-benzo[b]thiophen-3-yl-propionylamino)-3-[2-(1-carbamoyl-2-naphthalen-2-yl-ethylcarbamoyl)-piperidin-1-yl]-3-oxo-propylsulfanylmethyl}-phosphonic acid]",< 1000 nM
5,NC(=O)[C@H](Cc1ccc2ccccc2c1)NC(=O)[C@@H]1CCCCN1C(=O)[C@H](CSCP(=O)(O)O)NC(=O)[C@H](Cc1csc2ccccc12)NC(=O)CCCCCNC(=S)Nc1ccc(-c2c3ccc(=O)cc-3oc3cc(O)ccc23)c(C(=O)O)c1 [Compound 9] ({X1-Ahx}-[Bta]C(CH2PO3H2)[Pip][2Nal]-NH2),< 1000 nM
6,"NC(=O)[C@H](Cc1ccc2ccccc2c1)NC(=O)[C@@H]1CCCCN1C(=O)[C@H](CSCP(=O)(O)O)NC(=O)CC1NC(=O)NC1=O (some centres unmarked) [Compound 10, {3-[2-(1-Carbamoyl-2-naphthalen-2-yl-ethylcarbamoyl)-piperidin-1-yl]-2-[2-(2.5-dioxo-imidazolidin-4-yl)-acetylamino]-3-oxo-propylsulfanylmethyl}-phosphonicacid]",< 1000 nM
7,"NC(=O)[C@H](Cc1ccc2ccccc2c1)NC(=O)[C@@H]1CCCCN1C(=O)[C@H](CSCP(=O)(O)O)NC(=O)C1CSC(=O)N1 (some centres unmarked) [Compound 12, {3-[2-(1-Carbamoyl-2-naphthalen-2-yl-ethylcarbamoyl)-piperidin-1-yl]-3-oxo-2-[(2-oxo-thiazolidine-4-carbonyl)-amino]-propylsulfanylmethyl}-phosphonicacid]",< 1000 nM
8,"NC(=O)[C@H](Cc1ccc2ccccc2c1)NC(=O)[C@@H]1CCCCN1C(=O)[C@H](CSCP(=O)(O)O)NC(=O)C1CSC(=O)N1C(=O)C1CSC(=O)N1 (some centres unmarked) [Compound 13, (3-[2-(1-Carbamoyl-2-naphthalen-2-yl-ethylcarbamoyl)-piperidin-1-yl]-3-oxo-2-{[2-oxo-3-(2-oxo-thiazolidine-4-carbonyl)-thiazolidine-4-carbonyl]-amino}-propylsulfanylmethyl)-phosphonicacid]",< 1000 nM
9,"NC(=O)[C@H](Cc1ccc2ccccc2c1)NC(=O)[C@@H]1CCCCN1C(=O)[C@H](CSCP(=O)(O)O)NC(=O)[C@H](Cc1csc2ccccc12)NC(=O)C1CCNCC1 [Compound 18, {2-{3-Benzo[b]thiophen-3-yl-2-[(piperidine-4-carbonyl)-amino]-propionylamino}-3-[2-(1-carbamoyl-2-naphthalen-2-yl-ethylcarbamoyl)-piperidin-1-yl]-3-oxo-propylsulfanylmethyl}-phosphonic acid] (H-[Inp][Bta]C(CH2PO3H2)[Pip][2Nal]-NH2)",< 1000 nM
10,"NC(=O)[C@H](Cc1ccc2ccccc2c1)NC(=O)[C@@H]1CCCCN1C(=O)[C@H](CSCP(=O)(O)O)NC(=O)[C@H](Cc1csc2ccccc12)NC(=O)CN1CCNCC1 [Compound 19, {2-[3-Benzo[b]thiophen-3-yl-2-(2-piperazin-1-yl-acetylamino)-propionylamino]-3-[2-(1-carbamoyl-2-naphthalen-2-yl-ethylcarbamoyl)-piperidin-1-yl]-3-oxo-propylsulfanylmethyl}-phosphonic acid] ({Acetyl(2-(piperazin-1-yl))}-[Bta]C(CH2PO3H2)[Pip][2Nal]-NH2)",< 1000 nM

# Same assay, conditions: hPin1 6 nM; substrate Ac-Ala-Ala-Ser(PO3H2)-Pro-Arg-pNA, trypsin; 35 mM HEPES pH 7.8, 6° C.; read-out: Specificity of the inhibition with rotamases, Target T-1 (IC50 class)
row,IC50,SMILES
1,1000 to 10000 nM,"CNC(=O)CC(SCP(=O)(O)O)C(=O)N1CCCC[C@H]1C(=O)N[C@@H](Cc1ccc2ccccc2c1)C(N)=O (mixture of isomers) [Compound 69, {2-[2-(1-Carbamoyl-2-naphthalen-2-yl-ethylcarbamoyl)-piperidin-1-yl]-1-methylcarbamoylmethyl-2-oxo-ethylsulfanylmethyl}-phosphonic acid]"
2,< 1000 nM,"COc1ccc(NC(=O)CC(SCP(=O)(O)O)C(=O)N2CCCC[C@H]2C(=O)N[C@@H](Cc2ccc3ccccc3c2)C(N)=O)cc1 (mixture of isomers) [Compound 70, {2-[2-(1-Carbamoyl-2-naphthalen-2-yl-ethylcarbamoyl)-piperidin-1-yl]-1-[(4-methoxy-phenyl-carbamoyl)-methyl]-2-oxo-ethylsulfanylmethyl}-phosphonicacid]"
3,1000 to 10000 nM,"CC(SCP(=O)(O)O)C(=O)N1CCCC[C@H]1C(=O)N[C@@H](Cc1ccc2ccccc2c1)C(N)=O (stereo in doubt) [Compound 65, {2-[2-(1-Carbamoyl-2-naphthalen-2-yl-ethylcarbamoyl)-piperidin-1-yl]-1-methyl-2-oxo-ethylsulfanylmethyl}-phosphonicacid]"
4,< 1000 nM,"NC(=O)[C@H](Cc1ccc2ccccc2c1)NC(=O)[C@@H]1CCCCN1C(=O)[C@H](CSCP(=O)(O)O)NC(=O)CCSCc1ccc(Cl)cc1 [Compound 5, {3-[2-(1-Carbamoyl-2-naphthalen-2-yl-ethylcarbamoyl)-piperidin-1-yl]-2-[3-(4-chloro-benzylsulfanyl)-propionylamino]-3-oxo-propylsulfanylmethyl}-phosphonicacid] ([Mpa](Benzyl(4-Cl))C(CH2PO3H2)[Pip][2Nal]-NH2)"
5,< 1000 nM,"NC(=O)[C@H](Cc1ccc2ccccc2c1)NC(=O)[C@@H]1CCCCN1C(=O)[C@H](CSCP(=O)(O)O)NC(=O)CCCC(=O)c1ccc(Cl)cc1 [Compound 7, {3-[2-(1-Carbamoyl-2-naphthalen-2-yl-ethylcarbamoyl)-piperidin-1-yl]-2-[5-(4-chloro-phenyl)-5-oxo-pentanoylamino]-3-oxo-propylsulfanylmethyl}-phosphonicacid]"
6,< 1000 nM,"NC(=O)[C@H](Cc1ccc2ccccc2c1)NC(=O)[C@@H]1CCCCN1C(=O)[C@H](CSCP(=O)(O)O)NC(=O)c1cccc(Oc2ccccc2)c1 [Compound 14, [3-[2-(1-Carbamoyl-2-naphthalen-2-yl-ethylcarbamoyl)-piperidin-1-yl]-3-oxo-2-(3-phenoxy-benzoylamino)-propylsulfanylmethyl]-phosphonicacid]"
7,1000 to 10000 nM,"NC(=O)[C@H](Cc1ccc2ccccc2c1)NC(=O)[C@@H]1CCCCN1C(=O)[C@H](CSCP(=O)(O)O)NC(=O)C1CCc2ccccc2C1 (some centres unmarked) [Compound 15, {3-[2-(1-Carbamoyl-2-naphthalen-2-yl-ethylcarbamoyl)-piperidin-1-yl]-3-oxo-2-[(1.2.3.4-tetrahydro-naphthalene-2-carbonyl)-amino]-propylsulfanylmethyl}-phosphonicacid]"
8,1000 to 10000 nM,"NC(=O)[C@H](Cc1ccc2ccccc2c1)NC(=O)[C@@H]1CCCCN1C(=O)[C@H](CSCP(=O)(O)O)NC(=O)CCc1cccs1 [Compound 16, [3-[2-(1-Carbamoyl-2-naphthalen-2-yl-ethylcarbamoyl)-piperidin-1-yl]-3-oxo-2-(3-thiophen-2-yl-propionylamino)-propylsulfanylmethyl]-phosphonicacid]"

# The next lines start with the compound.
row,SMILES,IC50
1,"NC(=O)[C@H](Cc1ccc2ccccc2c1)NC(=O)[C@@H]1CCCCN1C(=O)[C@H](COCP(=O)(O)O)NC(=O)OCC1c2ccccc2-c2ccccc21 [Compound 4, [3-[2-(1-Carbamoyl-2-naphthalen-2-yl-ethylcarbamoyl)-piperidin-1-yl]-2-(9H-fluoren-9-ylmethoxycarbonylamino)-3-oxo-propoxymethyl]-phosphonic acid]",1000 to 10000 nM
2,"NC(=O)[C@H](Cc1ccc2ccccc2c1)NC(=O)[C@@H]1CCCCN1C(=O)[C@H](CSCP(=O)(O)O)NC(=O)CCSCc1ccc(Cl)c(Cl)c1 [Compound 6, {3-[2-(1-Carbamoyl-2-naphthalen-2-yl-ethylcarbamoyl)-piperidin-1-yl]-2-[3-(3.4-dichloro-benzylsulfanyl)-propionylamino]-3-oxo-propylsulfanylmethyl}-phosphonic acid] ([Mpa](Benzyl(3,4-Cl2))C(CH2PO3H2)[Pip][2Nal]-NH2)",1000 to 10000 nM
3,"NC(=O)[C@H](Cc1ccc2ccccc2c1)NC(=O)[C@@H]1CCCCN1C(=O)[C@H](CSCP(=O)(O)O)NC(=O)CCCCc1ccccc1 [Compound 8, [3-[2-(1-Carbamoyl-2-naphthalen-2-yl-ethylcarbamoyl)-piperidin-1-yl]-3-oxo-2-(5-phenyl-pentanoylamino)-propylsulfanylmethyl]-phosphonicacid]",< 1000 nM
4,"NC(=O)[C@H](Cc1ccc2ccccc2c1)NC(=O)[C@@H]1CCCCN1C(=O)[C@H](CSCP(=O)(O)O)NC(=O)CC1CCCCC1 [Compound 11, [3-[2-(1-Carbamoyl-2-naphthalen-2-yl-ethylcarbamoyl)-piperidin-1-yl]-2-(2-cyclohexyl-acetylamino)-3-oxo-propylsulfanylmethyl]-phosphonic acid]",1000 to 10000 nM
5,NC(=O)[C@H](Cc1ccc2ccccc2c1)NC(=O)[C@@H]1CCCCN1C(=O)[C@H](CSCP(=O)(O)O)NC(=O)OCC1c2ccccc2-c2ccccc21 [Compound 17],1000 to 10000 nM
